Laboratory results published in US10077295B2, “Glycoproteins having lipid mobilizing properties and therapeutic uses thereof” (Aston University, priority 2010, dated 2018).

What was measured:
[1] = biological target: T1, β3-AR (Homo sapiens, UniProt P13945); assay: Cyclic AMP production in CHO-K1 cells transfected with β3-AR; format: cell-based; parameters: host or cells: CHO-K1; conditions: CHO β3-AR
Method: (§1) Binding Studies and Cyclic AMP Determination. CHO-K1 cells transfected with the human β1- and β2-AR obtained from University of Nottingham, UK, while CHOK1 cells transfected with the β3-AR were obtained from Astra Zeneca, Macclesfield, Cheshire, UK. Gene expression was under the control of hygromycin, together with a β-gal reporter construct, selected for resistance to G418. They were maintained in DMEM supplemented with 2 mM glutamine, hygromycin B ([…]), G418 ([…]), and 10% FCS, under an atmosphere of 10% CO2 in air. To determine the effect of agonists on cyclic AMP production, cells were grown in 24-well plates containing 1 ml of nutrient medium.

[2] = tested on: ob/ob mice; assay: ob/ob mice treated with ZAG i.v. with or without propanolol; format: in vivo, mouse; conditions: propanolol 40 mg kg−1 po daily
Method: Animals. […] Male mice (about 20 weeks of age) were grouped into three per cage and kept in an air conditioned room at 22±2° C., with ad libitum feeding of a rat and mouse breeding diet (Special Diet Services, Witham, UK) and tap water. Mice were administered ZAG (50 μg, i.v. in 100 μl PBS) or PBS daily with or without propanolol (40 mgkg^−1, po, daily) and body weight and food and water intake were determined, as well as urinary glucose excretion and body temperature, determined by the use of a rectal thermometer (RS Components, Northants, UK). A glucose tolerance test was performed on day 3. […] Blood samples were removed from the tail vein at 15, 30, 60 and 120 min after glucose administration and used for the measurements of glucose and insulin. At the end of the experiment the animals were terminated by cervical dislocation, tissues removed and rapidly frozen in liquid nitrogen, and maintained at −80° C.
To determine whether ZAG can increase insulin signalling the effect on Glut4 expression was determined.

[3] = tested on: ob/ob mice; assay: Oral (p.o.) administration of rhZAG to ob/ob mice; format: in vivo, mouse; conditions: 50 ug ZAG p.o. daily with propranolol
Method: 50 ug per day of rhZAG was administered p.o. to Aston ob/ob mice. Oral dosing was achieved by assuming 5 mL/day consumption of water, and adding ZAG to achieve 50 ug per day dose based on that assumption. No attempt was made to correct for variations of consumption on a given day.
Experiment One (8 Day Oral ZAG Study): 50 ug of ZAG was administered p.o. daily in drinking water.
Experiment Two (8 Day Oral ZAG Plus Propranolol Study): 50 ug of ZAG administered p.o. daily, with and without propranolol. Propanolol blocks all of the effects of ZAG including decrease in body weight and blood glucose in the tolerance test, also blocking the rise in body temperature and the rise in plasma mouse ZAG, confirming that this occurs through a beta adrenergic receptor. […] It appears to do this by preventing the rise in mouse ZAG in the serum after oral administration of the rhZAG.
Experiment Three (Oral Study): ZAG administered p.o. daily over an extended time frame, with a recovery group split from the treated group beginning at 30 days (data not shown).

[4] = tested on: rat epididymal adipocytes; assay: Lipolytic activity in rat adipocytes; format: cell-based; conditions: rat epididymal adipocytes
Method: Lipolytic Activity in Rat Adipocytes—White adipocytes were prepared from finely minced epididymal adipose tissue of male Wistar rats (400 g) using collagenase digestion, as described (Beck S A, et al. Production of lipolytic and proteolytic factors by a murine tumor-producing cachexia in the host. Cancer Res 47:5919-5923, 1987). Lipolytic activity was determined by incubating 10^5-2×10^5 adipocytes for 2 h in 1 ml Krebs-Ringer bicarbonate buffer, pH 7.2, and the extent of lipolysis was determined by measuring the glycerol released (Wieland O. Glycerol UV method. Methods of Enzymatic Analysis, edited by Bergmeyer H U. Academic Press, London, pp 1404-1409, 1974). Spontaneous glycerol release was measured by incubating adipocytes alone. Lipolytic activity was expressed as μmol glycerol released/10^5 adipocytes/2 h.

[5] = biological target: T2, human β2-AR (Homo sapiens, UniProt P07550); assay: Cyclic AMP production in CHO-K1 cells transfected with β2-AR; format: cell-based; conditions: CHO β2-AR, SR59230A 10 μM
T2 construct: host or cells: CHO-K1
Method: as §1

[6] = tested on: murine myotubes; assay: Murine myotubes subjected to high glucose: protein degradation, protein synthesis, ROS, pPKR; format: cell-based, mouse; conditions: 10 or 25 mM glucose; ZAG 25 μg/ml
Method: This utilizes murine myotubes subjected to high concentrations of glucose (10 or 25 mM). […] However the SR compound (i.e., SR59230A) can also act as a β-agonist, which it seemed to do in these experiments.
It has been shown that formation of reactive oxygen species (ROS) is important in protein degradation induced by high glucose load. […] High glucose also induces activation (phosphorylation) of PKR (FIG. 22A) and the subsequent phosphorylation of eIF2α (FIG. 22B) as is seen in skeletal muscle of ob/ob mice, which was also attenuated by ZAG.

[7] = tested on: adipocytes, BAT; assay: Expression of ZAG, HSL, UCP in adipose tissue/adipocytes of mice (5 day ZAG study); format: in vivo, mouse; conditions: ERK inhibitor added with ZAG
Method: Western Blot Analysis. Freshly excised gastrocnemius muscles were washed in PBS and lysed in PHOSPHOSAFE™ Extraction Reagent for 5 min at room temperature followed by sonication at 4° C. The lysate was cleared by centrifugation at 18,000 g for 5 min at 4° C. and samples of cytosolic protein (5 μg) were resolved on 12% sodium dodecyl sulfate-polyacrylamide gel electrophoresis at 180V for approximately 1 h. This was followed by transference to 0.45 μm nitrocellulose membranes, which were then blocked with 5% Marvel in Tris-buffered saline, pH 7.5, at 4° C. overnight. Both primary and secondary antibodies were used at a dilution of 1:1000 except anti-myosin (1:250). Incubation was for 1 h at room temperature, and development was by ECL. Blots were scanned by a densitometer to quantify differences.
A 5 day study was performed where ZAG was administered at 35 μg per day i.v. on a daily basis for 5 days. At the end of the experiment tissues were removed and blotted, or functional assays were carried out with isolated adipocytes. […] When ep adipocytes were prepared and maintained in tissue culture (RPMI 1640+10% FCS) ZAG expression was maintained for a further 3 days, even though no ZAG was added to the culture medium (FIG. 6B). […] In fact, as discussed above, too much ZAG is more likely to lead to resistance rather than an increased response.

[8] = biological target: T1, β3-AR; conditions: high affinity binding site; cited from earlier work

T1 sequence (P13945 whole entry): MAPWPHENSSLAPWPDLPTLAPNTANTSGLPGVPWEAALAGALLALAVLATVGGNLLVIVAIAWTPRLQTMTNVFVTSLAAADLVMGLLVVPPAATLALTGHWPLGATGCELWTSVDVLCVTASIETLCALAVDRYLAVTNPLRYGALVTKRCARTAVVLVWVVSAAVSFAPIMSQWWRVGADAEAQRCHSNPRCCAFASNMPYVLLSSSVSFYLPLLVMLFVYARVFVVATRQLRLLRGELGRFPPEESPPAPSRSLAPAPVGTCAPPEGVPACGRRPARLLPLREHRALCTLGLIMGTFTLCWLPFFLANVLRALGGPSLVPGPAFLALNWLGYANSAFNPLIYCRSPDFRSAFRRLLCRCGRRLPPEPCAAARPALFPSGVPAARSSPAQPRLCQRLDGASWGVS
T2 sequence (P07550 whole entry): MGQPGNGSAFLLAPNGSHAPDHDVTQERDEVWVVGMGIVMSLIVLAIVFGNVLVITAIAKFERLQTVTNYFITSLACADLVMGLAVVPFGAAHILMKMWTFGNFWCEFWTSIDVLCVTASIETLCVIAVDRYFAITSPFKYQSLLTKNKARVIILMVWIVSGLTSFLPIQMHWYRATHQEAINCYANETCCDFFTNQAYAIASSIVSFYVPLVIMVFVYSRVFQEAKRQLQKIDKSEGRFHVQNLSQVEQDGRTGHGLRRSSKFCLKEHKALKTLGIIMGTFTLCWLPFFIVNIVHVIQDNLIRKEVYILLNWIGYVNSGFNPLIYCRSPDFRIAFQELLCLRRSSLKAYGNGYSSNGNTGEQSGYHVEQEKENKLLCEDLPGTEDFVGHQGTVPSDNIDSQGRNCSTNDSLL

CC(C)NCC(O)c1ccc(O)c(O)c1 (centres unmarked) [isoprenaline, reference compound]
cyclic AMP level ([1]; 10 μM): significant increases in cyclic AMP level

CC(C)NCC(O)COc1cccc2ccccc12 (centres unmarked) [propanolol, propranolol]
effect on ZAG-induced changes in oral glucose tolerance test [2]: blocked the reduction in peak plasma glucose levels | effect on increased body temperature produced by ZAG [2]: completely attenuated | effect on decrease in body weight produced by ZAG ([2]; ZAG 50 μg iv daily): completely attenuated | effect on weight loss by oral ZAG [3]: totally attenuates weight loss

CCc1ccccc1OC[C@@H](O)CN[C@H]1CCCc2ccccc21 [SR59230A, reference compound]
effect on the lipolytic effect of ZAG [4]: completely attenuated | effect on isoprenaline-induced increase in cyclic AMP [5]: attenuated | effect on protein degradation stimulated by high glucose [6]: attenuated | effect on isoprenaline-induced increase in cyclic AMP ([1]; SR59230A 10 μM): attenuated

COc1cccc(-c2cc(=O)c3ccccc3o2)c1N [PD98059, reference compound]
effect on ZAG-induced expression of phospho HSL [7]: completely attenuated

B1: LMF: lipid mobilizing factor of cancer cachexia, shown immunologically identical to ZAG (protein, UniProt P25311 21-298, looked up)
Zinc-alpha-2-glycoprotein: QENQDGRYSLTYIYTGLSKHVEDVPAFQALGSLNDLQFFRYNSKDRKSQPMGLWRQVEGMEDWKQDSQLQKAREDIFMETLKDIVEYYNDSNGSHVLQGRFGCEIENNRSSGAFWKYYYDGKDYIEFNKEIPAWVPFDPAAQITKQKWEAEPVYVQRAKAYLEEECPATLRKYLKYSKNILDRQDPPSVVVTSHQAPGEKKKLKCLAYDFYPGKIDVHWTRAGEVQEPELRGDVLHNGNGTYQSWVVVAVPPQDTAPYSCHVQHSSLAQPLVVPWEAS
Kd [8]: 78 ± 4.5 nM
